Assay results as given in ChEMBL document CHEMBL1136666, “Indanyl piperazines as melatonergic MT2 selective agents” (Bioorg Med Chem Lett, 2003).
pEC50, pIC50: −log10 of the molar value.

What was measured:
[1] = target: T1, Melatonin receptor type 1B (Homo sapiens, UniProt P49286); test: In vitro receptor binding at MT2 (Melatonin) receptor.
T1 sequence (P49286 whole entry): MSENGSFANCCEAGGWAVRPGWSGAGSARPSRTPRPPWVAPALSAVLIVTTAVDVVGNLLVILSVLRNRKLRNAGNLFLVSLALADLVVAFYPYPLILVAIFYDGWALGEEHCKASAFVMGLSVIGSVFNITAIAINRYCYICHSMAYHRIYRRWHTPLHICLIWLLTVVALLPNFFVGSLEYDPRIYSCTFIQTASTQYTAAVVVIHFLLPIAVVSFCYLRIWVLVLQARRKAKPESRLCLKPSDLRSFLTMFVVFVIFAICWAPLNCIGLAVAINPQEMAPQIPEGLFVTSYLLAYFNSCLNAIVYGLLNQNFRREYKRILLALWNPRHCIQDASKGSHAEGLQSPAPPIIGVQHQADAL

[2] = target: Melatonin receptor type 1A (Homo sapiens, UniProt P48039); test: In vitro receptor binding at MT1 (Melatonin) receptor.
Melatonin receptor type 1A, sequence (P48039 whole entry): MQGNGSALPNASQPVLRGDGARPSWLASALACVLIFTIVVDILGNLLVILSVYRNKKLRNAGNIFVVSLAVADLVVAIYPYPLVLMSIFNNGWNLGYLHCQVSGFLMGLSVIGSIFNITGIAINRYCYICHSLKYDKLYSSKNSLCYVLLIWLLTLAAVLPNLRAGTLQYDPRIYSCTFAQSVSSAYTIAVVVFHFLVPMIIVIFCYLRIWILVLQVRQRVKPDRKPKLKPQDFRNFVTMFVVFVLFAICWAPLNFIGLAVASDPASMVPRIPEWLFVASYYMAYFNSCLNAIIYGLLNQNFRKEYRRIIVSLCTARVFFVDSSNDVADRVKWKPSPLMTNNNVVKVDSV

[3] = target: T1, Melatonin receptor type 1B; test: Effective concentration against human MT2 (Melatonin) receptor stably expressed in NIH3T3 cells in adenylyl cyclase assay; type: functional, cell-based

Row | pIC50 [1] | pIC50 [2] | pEC50 [3] | SMILES
1 | 8.82 | 6.80 |  | COc1ccc2c(c1)C(N1CCN(C(=O)C(C)C)CC1)CC2 (stereo unspecified)
2 | 7.49 | < 6.00 |  | CCC(=O)N1CCN(C2CCc3ccc(OC)cc32)CC1 (stereo unspecified)
3 | 8.64 | < 6.00 |  | CCCC(=O)N1CCN(C2CCc3ccc(OC)cc32)CC1 (stereo unspecified)
4 | < 6.00 | < 6.00 |  | COc1ccc2c(c1)[C@@H](N1CCN(C(=O)C(C)C)CC1)CC2
5 | 8.82 | 6.94 |  | COc1ccc2c(c1)[C@H](N1CCN(C(=O)C(C)C)CC1)CC2
6 | 8.80 | 7.35 |  | COc1ccc2c(c1)[C@H](N1CCN(C(=O)C3CC3)CC1)CC2
7 | < 6.00 | < 6.00 |  | CCNC(=O)N1CCN([C@H]2CCc3ccc(OC)cc32)CC1
8 | < 6.00 | < 6.00 |  | COc1ccc2c(c1)[C@@H](N1CCN(C(=O)C3CC3)CC1)CC2
9 | 7.36 | < 6.00 |  | COc1ccc2c(c1)C(N1CCN(C(C)=O)CC1)CC2 (stereo unspecified)
10 | 6.99 | < 6.00 |  | CCCCC(=O)N1CCN(C2CCc3ccc(OC)cc32)CC1 (stereo unspecified)
11 | 8.77 | 6.70 | 8.62 | CCNC(=O)N1CCN([C@@H]2CCc3ccc(OC)cc32)CC1
12 | 8.51 | < 6.00 |  | CCNC(=O)N1CCN(C2CCc3ccc(OC)cc32)CC1 (stereo unspecified)

More lines, now with the values behind:

Row | SMILES | pIC50 [1] | pIC50 [2] | pEC50 [3]
13 | COc1ccc(F)c(CN2CCN(C(=O)C3CC3)CC2)c1 | 6.57 | < 6.00 | 
14 | COc1ccc(F)c(CN2CCN(C(=O)C(C)C)CC2)c1 | 6.65 | < 6.00 | 
15 | COc1ccc2c(c1)C(N1CCN(C(=O)C3CC3)CC1)CC2 (stereo unspecified) | 8.52 | 6.81 | 
16 | COc1ccc(F)c(CN2CCN(C(C)=O)CC2)c1 | < 6.00 | < 6.00 | 
17 | COc1ccc2cccc(N3CCN(C(=O)C4CC4)CC3)c2c1 | 7.05 | < 6.00 | 
18 | CCNC(=O)N1CCN(C2CCCc3ccc(OC)cc32)CC1 (stereo unspecified) | 7.03 | < 6.00 | 
19 | CCNC(=O)N1CCN(c2cccc3ccc(OC)cc23)CC1 | < 6.00 | < 6.00 | 
20 | COc1ccc2c(c1)C(N1CCN(C(=O)C3CC3)CC1)CCC2 (stereo unspecified) | 7.12 | < 6.00 | 
